Where two headings read alike, the source gives them in different places. Marks after values point to notes of the source that are not given here.
Tests used:
MCF-7 cells = assay: Cell cycle distribution by flow cytometry; format: cell-based, human; settings: 24 h
[1] = Serum biochemical markers after treatment of MNU-induced rats; format: in vivo, Wistar rats; set-up: TBC: unit not given here; settings: for ALP (A/L) / ALT (A/L) / AST (U/L) / γ-GT (U/L): serum; for TBC: total bilirubin content
Description: (§1) Rats were housed at 3 per cage and
(§2) The breast cancer was induced after the MNU (Sigma Aldrich CAS No. 684-93-5) administration. An aqueous solution at a concentration of 10 mg/ml was made by wetting the NMU powder with 3% acetic acid and then dissolving it in 0.9% NaCl solution; a fresh solution was prepared for each injection. Rats were given intraperitoneal (i.p.) 50 mg/kg of MNU on the 50th day of age. Animals were divided into different groups with six animals in each group. Group I (intact control) received 0.9% NaCl solution.
(§3) Groups II-IV and V-VII were introduced with MNU. Two weeks after MNU treatment, animals were treated orally with synthesized compounds and control substances (5 and 50 mg/kg, for groups II-IV and V-VII, respectively) by gavage once per day for six weeks. Animals in the intact control group and untreated MNU group were given vehicle (Tween 80) according to the experimental protocol. […]
Upon finishing the treatment with synthesized compounds, animals were sacrificed, and plasma, serum, and liver samples were collected.
Measurement of Serum Biochemical Markers
The activities of AST and ALT on 340 nm, and ALP on 405 nm, were determined by UV-Vis kinetic methods according to recommendations of the Expert Panel of the IFCC (International Federation of Clinical Chemistry). The colorimetric methods were used for the determination of total bilirubin (Jendrassik-Grof 550 nm method). All kinetic and colorimetric measurements were recorded using a Perkin-Elmer Lambda 25 UV/Vis spectrophotometer. […]

[2] = Liver oxidative stress markers after treatment of MNU-induced rats; format: in vivo, Wistar rats; set-up: CAT: unit not given here; settings: liver; for CAT: catalase activity; for GSH: reduced glutathione; for SOD (U/mg): superoxide dismutase activity; for TP: total protein content
Description: as §1, §2, §3
(§4) Upon finishing the treatment with synthesized compounds, animals were sacrificed, and plasma, serum, and liver samples were collected. […]
Determination of Antioxidant Markers in Liver Homogenate
Rat liver samples were homogenized in phosphate buffer (5 mM, pH = 7.4) to give a 10% (w/v) liver homogenate and then centrifuged at 4000 rpm for 15 min at 4°C. The supernatant of liver homogenate was used for the estimation of reduced glutathione (GSH) and catalase (CAT) levels by the colorimetric method. The contents of malondialdehyde (MDA) in the supernatant of the liver homogenates were determined using 1,1,3,3-tetraethoxypropane as standard. Total protein concentrations were determined according to the method of Lowry using bovine serum albumin as […]

[3] = test system: Ishikawa endometrial adenocarcinoma cells; assay: Antiproliferative assay; format: cell-based; settings: Homo sapiens, growth inhibition
Description: As SERMs profile is often associated with the stimulation of endometrial cell proliferation and an increase in the incidence of endometrial cancer (EC), the herein compounds were therefore evaluated against Ishikawa endometrial adenocarcinoma cells (Table 8, Supplementary Material Figures […]). […] However, future experimental elaboration, currently beyond the authors' experimental facilities, is required to confirm compounds' promising profiles in terms of no EC induction.

ERβ = ERβ (Homo sapiens, UniProt Q92731); assay: Fluorescence polarization competition assay: antagonistic potency and relative binding affinity; settings: for logRBA ERβ: log of % relative binding affinity, estradiol = 100%
[4] = test system: MNU-induced breast cancer tissue; assay: Histopathology of breast sections; format: in vivo, Wistar rats
Description: The impact of selected leads on BC tissue was registered after their administration to experimental animals with MNU-induced BC (Figure 9 and Supplementary Material Figures S211–S218). […] In contrast to this, the administered leads were harmless in both concentrations, neutralizing the MNU-induced changes, judging by the lobuloalveolar units and cuboidal epithelial cells found (Figure 9C,D, and Supplementary Material Figures S214–S218). […]
Histopathological Studies
histopathological changes. […]

[5] = Lipophilicity by shake-flask method; settings: pH 7.4
MDA-MB-231 cell lines = assay: MTT antiproliferative assay; format: cell-based, human; settings: read-out: MDA-MB-231 (IC50 nM)
MCF-7 cell lines = assay: MTT antiproliferative assay; format: cell-based, human; settings: read-out: MCF-7 (IC50 nM)
[6] = Pharmacokinetics study, oral bioavailability; settings: rat
[7] = test system: progesterone receptor (PR); assay: ERα functional antagonism cell assay (PR as biomarker) in MCF-7; format: cell-based; settings: Homo sapiens, MCF7; progesterone receptor as biomarker for ERα antagonism in MCF-7
[8] = test system: MNU-induced breast cancer; assay: In vivo anticancer screening, MNU-induced mammary tumorigenesis; set-up: species or system female Wistar rats
[9] = Plasma protein binding determination; format: in vitro ADME, rat; settings: rat plasma, 37 °C, read-out: Rat PPB (%free)
Description: as §1, §2, §3, §4
Rat plasma containing either 5 or 50 mg/kg bwt of the tested compounds was incubated at 37°C upper reservoir of the washed Centri-free YM-30 ultrafiltration units (Millipore, Bedford, MA) and then centrifuged for 20 min at 2,000 g. Aliquots of the ultrafiltrates and unfiltered incubation mixtures were analyzed for the total protein concentration by the bicinchoninic acid assay for protein concentration (BCA assay; Pierce, Rockford, IL).

[10] = MTT antiproliferative assay (neutral control); settings: human
[11] = dose 50 mg/kg (compounds per os after MNU; MNU alone i.p.)
[12] = MFD 1000 mg/kg (MNU: MTD 100 mg/kg bwt), 5 days

Chain of ERβ (Q92731 whole entry): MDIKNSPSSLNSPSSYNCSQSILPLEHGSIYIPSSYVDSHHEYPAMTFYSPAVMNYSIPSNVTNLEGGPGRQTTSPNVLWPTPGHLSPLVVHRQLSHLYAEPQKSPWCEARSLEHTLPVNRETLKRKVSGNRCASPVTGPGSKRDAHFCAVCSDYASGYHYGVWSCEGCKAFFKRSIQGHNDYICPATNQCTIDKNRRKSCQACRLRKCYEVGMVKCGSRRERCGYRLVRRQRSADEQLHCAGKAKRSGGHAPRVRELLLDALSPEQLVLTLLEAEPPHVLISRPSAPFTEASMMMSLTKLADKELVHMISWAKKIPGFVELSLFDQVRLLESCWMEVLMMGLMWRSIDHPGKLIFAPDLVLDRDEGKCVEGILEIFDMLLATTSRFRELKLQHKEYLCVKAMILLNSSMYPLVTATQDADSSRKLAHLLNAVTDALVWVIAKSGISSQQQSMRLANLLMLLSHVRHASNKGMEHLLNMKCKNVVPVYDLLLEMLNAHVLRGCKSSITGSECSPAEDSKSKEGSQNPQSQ

SMILES: CC(=O)c1cc(C(=O)O[C@@H]2/C=C/C(=O)O[C@@H](O)CCC/C=C/[C@@H]3C[C@H](O)C[C@H]32)ccc1OCCS(=O)(=O)O [Compound 3DPQ-4, 2-(2-acetyl-4-((((1R,2E,6R,10E,11aS,13S,14aR)-6,13-dihydroxy-4-oxo-4,6,7,8,9,11a,12,13,14,14a-decahydro-1H-cyclopenta[f][1]oxacyclotridecin-1-yl)oxy)carbonyl)phenoxy)ethanesulfonic acid]
- Cell Cycle (%) G0/G1 (MCF-7 cells; 0.1 nM): 77.78 ± 3.54 *^,†,‡,§ %
- Cell Cycle (%) G2/M (MCF-7 cells; 0.1 nM): 15.02 ± 4.23 *^,†,‡,§ %
- Cell Cycle (%) S (MCF-7 cells; 0.1 nM): 7.20 ± 2.88 *^,†,‡,§ %
- Cell Cycle (%) G0/G1 (MCF-7 cells; 1 nM): 80.24 ± 2.53 *^,†,‡,§ %
- Cell Cycle (%) G2/M (MCF-7 cells; 1 nM): 11.86 ± 3.43 *^,†,‡,§ %
- Cell Cycle (%) S (MCF-7 cells; 1 nM): 7.91 ± 0.1.54 *^,†,‡,§ %
- ALP (A/L) ([1]; dose 5 mg/kg): 99.41±0.15 A/L
- ALT (A/L) ([1]; dose 5 mg/kg): 55.87±0.62 A/L
- AST (U/L) ([1]; dose 5 mg/kg): 57.53±0.43 U/L
- γ-GT (U/L) ([1]; dose 5 mg/kg): 11.54±0.53 U/L
- ALP (A/L) ([1]; dose 50 mg/kg): 104.52±0.31 A/L
- ALT (A/L) ([1]; dose 50 mg/kg): 59.74±0.1 A/L
- AST (U/L) ([1]; dose 50 mg/kg): 59.46±0.63 U/L
- γ-GT (U/L) ([1]; dose 50 mg/kg): 13.46±0.55 U/L
- TBC ([1]; dose 5 mg/kg): 19.31
- TBC ([1]; dose 50 mg/kg): 22.74
- CAT ([2]; dose 5 mg/kg): 16.34±0.73
- CAT ([2]; dose 50 mg/kg): 16.43±0.66
- TBARS ([2]; dose 5 mg/kg): 0.65 ± 0.21 nmol/mg
- TBARS ([2]; dose 50 mg/kg): 0.65 ± 0.34 nmol/mg
- GSH ([2]; dose 5 mg/kg): 9.87 mg/g
- GSH ([2]; dose 50 mg/kg): 10.36 mg/g
- SOD (U/mg) ([2]; dose 5 mg/kg): 8.73±0.38 U/mg
- SOD (U/mg) ([2]; dose 50 mg/kg): 10.57±0.73 U/mg
- TP ([2]; dose 50 mg/kg): 48.54 g/L
- IC50 [3]: 0.92 ± 0.43 nM
- Ki (ERβ; calculated antagonistic (inhibitory) constant, read-out: Ka ERβ): 46.3 nM
- IC50 (ERβ; concentration that antagonizes 50% of ERβ signaling activity, read-out: ERβ (IC50 nM)): 82.45 ± 0.54 nM
- logRBA ERβ (ERβ): 0.03 ^†,‡,§
- breast section histopathology ([4]; 5 mg/kg of bwt): lobuloalveolar unit (LaU) and cuboidal epithelial cells (CE)
- breast section histopathology ([4]; 50 mg/kg of bwt): lobuloalveolar unit (LaU) and cuboidal epithelial cells (CE)
- logD at 30 min [5]: 1.88
- IC50 (MDA-MB-231 cell lines; Homo sapiens, MDA-MB-231, growth inhibition, 48 h): 67.31 ± 0.34 nM
- IC50 (MCF-7 cell lines; Homo sapiens, MCF7, growth inhibition, 48 h): 0.64 ± 0.15 nM
- BIO ([6]; oral 5 mg/kg): 90
- BIO ([6]; oral 50 mg/kg): 93
- IC50 [7]: > 100 nM
- Tumor Burden (week) ([8]; dose 5 mg/kg per os after MNU): 2.39 ± 0.56 *^,†,‡,‖ week
- Tumor Latency (week) ([8]; dose 5 mg/kg per os after MNU): 10 *^,† week
- Tumor Volume (mm^3) ([8]; dose 5 mg/kg per os after MNU): 0.98 ± 0.31 *^,†,‡,‖ mm^3
- Tumor Burden (week) [8, 11]: 1.33 ± 0.15 *^,†,§,┴ week
- Tumor Latency (week) [8, 11]: 14 *^,† week
- Tumor Volume (mm^3) [8, 11]: 0.41 ± 0.23 *^,†,§,┴ mm^3
- fraction unbound at 5 mg/kg bwt [9]: 0.0123
- fraction unbound at 50 mg/kg bwt [9]: 0.0151
- WL after MFD (day 1, mg) (rat, in vivo): 320.73 ± 0.36 mg
- IC50 at 48 h [10]: > 100 nM

SMILES: CC/C(=C(\c1ccc(O)cc1)c1ccc(OCCN(C)C)cc1)c1ccccc1 [Compound 4-OHT., 4-hydroxytamoxifen, reference compound]
- Cell Cycle (%) G0/G1 (MCF-7 cells; 0.1 nM): 57.22 ± 0.37 *^,†,§ %
- Cell Cycle (%) G2/M (MCF-7 cells; 0.1 nM): 24.02 ± 0.53 *^,,†§ %
- Cell Cycle (%) S (MCF-7 cells; 0.1 nM): 18.76 ± 0.41 *^,†,§ %
- Cell Cycle (%) G0/G1 (MCF-7 cells; 1 nM): 63.26 ± 0.41 *^,†,§ %
- Cell Cycle (%) G2/M (MCF-7 cells; 1 nM): 15.60 ± 0.15 *^,†,§ %
- Cell Cycle (%) S (MCF-7 cells; 1 nM): 21.14 ± 0.25 *^,†,§ %
- ALP (A/L) ([1]; dose 5 mg/kg): 105.32±0.31 A/L
- ALT (A/L) ([1]; dose 5 mg/kg): 52.44±0.31 A/L
- AST (U/L) ([1]; dose 5 mg/kg): 53.76±0.32 U/L
- γ-GT (U/L) ([1]; dose 5 mg/kg): 16.54 U/L
- ALP (A/L) ([1]; dose 50 mg/kg): 131.43±0.43 A/L
- ALT (A/L) ([1]; dose 50 mg/kg): 59.63±0.32 A/L
- AST (U/L) ([1]; dose 50 mg/kg): 58.41±0.25 U/L
- γ-GT (U/L) ([1]; dose 50 mg/kg): 18.47±0.45 U/L
- TBC ([1]; dose 5 mg/kg): 23.56
- TBC ([1]; dose 50 mg/kg): 25.57
- CAT ([2]; dose 5 mg/kg): 13.56±0.88
- CAT ([2]; dose 50 mg/kg): 20.46±0.76
- TBARS ([2]; dose 50 mg/kg): 3.63 ± 0.32 nmol/mg
- GSH ([2]; dose 5 mg/kg): 4.67 mg/g
- GSH ([2]; dose 50 mg/kg): 3.33 mg/g
- SOD (U/mg) ([2]; dose 5 mg/kg): 4.87±0.72 U/mg
- SOD (U/mg) ([2]; dose 50 mg/kg): 7.46±0.34 U/mg
- TP ([2]; dose 50 mg/kg): 47.46 g/L
- IC50 [3]: 1.29 ± 0.43 nM
- logRBA ERβ (ERβ): 1.39 ^†
- breast section histopathology ([4]; 5 mg/kg of bwt): necrosis (NEC)
- breast section histopathology ([4]; 50 mg/kg of bwt): necrosis (NEC)
- logD at 30 min ([5]; n-octanol/phosphate buffer): 3.64
- IC50 (MDA-MB-231 cell lines; growth inhibition, 48 h): 37.1 ± 0.45 nM
- IC50 (MDA-MB-231 cell lines; references in Table S17): 37.04 ± 0.32 nM
- IC50 (MCF-7 cell lines; growth inhibition, 48 h): 1.19 ± 0.57 nM
- IC50 (MCF-7 cell lines; references in Table S17): 1.24 ± 0.32 nM
- BIO ([6]; oral 5 mg/kg): 88 ^‖
- BIO ([6]; oral 50 mg/kg): 94
- IC50 [7]: > 100 nM
- Tumor Burden (week) ([8]; dose 5 mg/kg per os after MNU): 3.36 ± 0.38 *^,†,‖ week
- Tumor Latency (week) ([8]; dose 5 mg/kg per os after MNU): 7 * week
- Tumor Volume (mm^3) ([8]; dose 5 mg/kg per os after MNU): 1.88 ± 0.35 *^,†,‖ mm^3
- Tumor Burden (week) [8, 11]: 3.22 ± 0.21 *^,†,┴ week
- Tumor Latency (week) [8, 11]: 10 *^,† week
- Tumor Volume (mm^3) [8, 11]: 1.35 ± 0.63 *^,†,┴ mm^3
- fraction unbound at 5 mg/kg bwt [9]: 0.0185
- fraction unbound at 50 mg/kg bwt [9]: 0.0252
- colon section histopathology [12]: no morphological changes
- heart section histopathology [12]: no morphological changes
- kidney section histopathology [12]: no morphological changes
- liver section histopathology [12]: no morphological changes
- lung section histopathology [12]: no morphological changes
- spleen section histopathology [12]: no morphological changes
- WL after MFD (day 1, mg) (average body weight at day 1, dosing at MFD): 305.84 ± 0.59 mg
- WL after MFD (day 5, mg) (average body weight at day 5, dosing at MFD): 297.65 ± 0.39 mg
- MFD (5 days) (maximum feasible (or tolerated) dose, 5 days per os, 5-1000 mg/kg bwt): 1000 mg/kg
- IC50 at 48 h ([10]; MRC-5 lung fibroblast cells, MRC-5 (IC50 nM), growth inhibition): > 10 nM
- IC50 at 48 h ([10]; MRC-5 lung fibroblast cells, MRC-5 (IC50 nM), references in Table S17): > 100 nM
